# Test results reported in US8785439B2, “2,5,7-substituted oxazolopyrimidine derivatives” (Sanofi, priority 2010, dated 2014).
# Molecular target: T1, human Edg-1 receptor (Homo sapiens, UniProt P21453)
# T1 construct: FLAG (N); expressed in transfected cells; membrane preparation
# Experiment: GTP-γ-S assay using human Edg-1 receptors (SPA, CHO Flp-In cell membrane preparation)
# Assay type: biochemical
# Settings: test compound at 10 μM; high control 10 μM S1P regarded as 100% activation; background-corrected; triplicate
# Description: Determination of the Pharmacological Activity A) GTP-γ-S Assay Using Human Edg-1 Receptors
# In order to determine the Edg-1 receptor activation by the compounds of the invention, a GTP-γ-S (guanosine 5′-[γ-thio]triphosphate) assay for G-protein coupled receptor binding based on the scintillation proximity assay principle was used, employing a cell membrane preparation from a CHO Flp-In cell line which constitutively overexpresses the human Edg-1 receptor.
# The Flp-In™ expression system (Invitrogen, cat. no. K6010-01) allows the generation of stable mammalian cell lines into which the gene of interest has been integrated through homologous recombination at a specific genomic location called Flp Recombination Target (FRT) site by means of a Flp recombinase encoded by the pOG44 expression plasmid. The integration of the pcDNA5/FRT expression construct into the Flp-In host cell line genome results in the transcription of the gene of interest. The stably transfected cells become hygromycin-resistant.
# One day prior to transfection, 200 000 Flp-In-CHO cells were seeded in Ham F-12 medium (Invitrogen, cat. no. 31765) supplemented with 10% fetal calf serum (FCS; Perbio Science, cat. no. SH30068.03) in a 6-well plate and incubated at 37° C./5% CO2 overnight. Using the FuGENE® 6 transfection reagent (Roche, cat. no. 11988387001), cells were cotransfected with the Flp recombinase expression plasmid pOG44 and a modified plasmid additionally containing the edg-1 gene (accession no. NM_001400) termed as pcDNA5-FRT-TO_nFLAG_DEST-EDG-1 with a 9:1 ratio. To obtain the modified pcDNA5-FRT-TO_nFLAG_DEST plasmid, the Invitrogen plasmid pcDNA5/FRT/TO (Invitrogen, cat. no. V6520-20) was adapted to the Gateway® (Invitrogen) cloning system by inserting a Gateway cassette containing attR recombination sites flanking a ccdB gene and a chloramphenicol-resistance gene (Gateway conversion system, Invitrogen, cat. no. 11828-029). In addition a FLAG tag epitope was added before the 5′ att recombination site to allow recombinant expression of N-terminally FLAG-tagged proteins.
# For the transfection of one well, 1.08 μg of pOG44 and 0.12 μg of pcDNA5-FRT-TO_nFLAG_DEST-EDG-1 were mixed with 100 μl of serum-free Ham F-12 medium containing 6 μl of FuGENE® 6 transfection reagent. After 20 min of incubation, the transfection reagent/DNA complex was distributed dropwise on the cells. The cells were incubated for 24 h at 37° C. Then the cells from 3 wells each were transferred to a T75 flask (Greiner Cellstar®, cat. no. 658175) containing Ham F-12 medium supplemented with 10% of FCS but without antibiotic and were incubated another 24 h. 48 h after transfection, the medium was replaced by selection medium (Ham F-12 supplemented with 10% of FCS and 300 μg/ml of hygromycin B (Invitrogen, cat. no. 10687-010)). The medium was exchanged every 2 to 3 days until a resistant population of cells had grown. […] After 2 weeks of selection, the cells were transferred into T175 flasks (Greiner Cellstar®, cat. no. 660175) and cultivated for batch production. Cells were harvested from the culture flasks by short treatment (2 to 5 min) with Accutase (PAA, cat. no. L11-007), resuspended in selection medium (see above) and centrifuged at 200×g for 5 min. Cells were resuspended in a mixture of 90% of FCS and 10% of dimethylsulfoxide and stored frozen in liquid nitrogen.
# A membrane preparation was obtained by standard methods from the afore-described CHO Flp-In cell line constitutively overexpressing the human Edg-1 receptor. Briefly, the cryopreserved cells were taken in culture and grown until confluency in T175 cell culture flasks (Becton Dickinson, cat. no. 35 5001). […]
# T1 sequence (P21453 whole entry): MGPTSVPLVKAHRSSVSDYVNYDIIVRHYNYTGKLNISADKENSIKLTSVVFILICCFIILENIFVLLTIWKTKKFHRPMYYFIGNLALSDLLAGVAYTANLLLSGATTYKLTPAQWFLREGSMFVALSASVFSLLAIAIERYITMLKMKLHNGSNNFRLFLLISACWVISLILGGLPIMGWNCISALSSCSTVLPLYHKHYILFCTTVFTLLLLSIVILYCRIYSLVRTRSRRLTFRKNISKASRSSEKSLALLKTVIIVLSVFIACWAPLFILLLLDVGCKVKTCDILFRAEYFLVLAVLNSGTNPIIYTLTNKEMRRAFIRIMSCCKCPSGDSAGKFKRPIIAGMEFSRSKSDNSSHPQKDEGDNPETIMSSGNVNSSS
row,Structure (SMILES),% Activation (Edg-1 receptor activation in percent of the activation by 10 μM S1P)
1,CC1(C)OCC(COc2nc(OCC3CC3)c3nc(-c4cccc(F)c4)oc3n2)O1 (centres unmarked) [Example 35],72%

# Same assay, conditions: test compound at 10 μM; high control 10 μM S1P regarded as 100% activation; background-corrected; triplicate; read-out: % Activation (Edg-1 receptor activation in percent of the activation by 10 μM S1P)
row,Structure (SMILES),activation at 10 µM
1,"CCCOc1ccccc1Oc1nc(OCCC)c2nc(-c3cccc(C)c3)oc2n1 [Example 146, 7-propoxy-5-(2-propoxy-phenoxy)-2-(3-methyl-phenyl)-oxazolo[5,4-d]pyrimidine]",126%
2,"CCCOc1nc(Oc2cccc(SC(F)(F)F)c2)nc2oc(-c3cccc(F)c3)nc12 [Example 69, 2-(3-fluoro-phenyl)-7-propoxy-5-(3-trifluoromethylsulfanyl-phenoxy)-oxazolo[5,4-d]pyrimidine]",41%
3,"CCCOc1nc(Oc2ccccc2)nc2oc(-c3ccc(Cl)c(Cl)c3)nc12 [Example 105, 2-(3,4-dichloro-phenyl)-5-phenoxy-7-propoxy-oxazolo[5,4-d]pyrimidine]",88%
4,"CCOc1nc(Oc2cccc(S(N)(=O)=O)c2)nc2oc(-c3cc(F)ccc3Cl)nc12 [Example 21, 3-[2-(2-chloro-5-fluoro-phenyl)-7-ethoxy-oxazolo[5,4-d]pyrimidin-5-yloxy]-benzenesulfonamide]",81%
5,"CCCOc1nc(Oc2ccc(Cl)c(F)c2)nc2oc(-c3cccc(C)c3)nc12 [Example 74, 5-(4-chloro-3-fluoro-phenoxy)-7-propoxy-2-(3-methyl-phenyl)-oxazolo[5,4-d]pyrimidine]",69%
6,"CCCOc1nc(Oc2cc(F)ccc2C)nc2oc(-c3ccc(Cl)c(Cl)c3)nc12 [Example 157, 2-(3,4-dichloro-phenyl)-5-(5-fluoro-2-methyl-phenoxy)-7-propoxy-oxazolo[5,4-d]pyrimidine]",92%
7,"CCCOc1nc(Oc2cccnc2)nc2oc(-c3cccc(C)c3)nc12 [Example 77, 7-propoxy-5-(pyridin-3-yloxy)-2-(3-methyl-phenyl)-oxazolo[5,4-d]pyrimidine]",111%
8,"Cc1cccc(-c2nc3c(OCC4CC4)nc(OCC4COC(C)(C)O4)nc3o2)c1 (centres unmarked) [Example 36, 7-cyclopropylmethoxy-5-(2,2-dimethyl-[1,3]dioxolan-4-ylmethoxy)-2-(3-methyl-phenyl)-oxazolo[5,4-d]pyrimidine]",78%
9,"CCCOc1nc(Sc2ccccc2)nc2oc(-c3cc(F)ccc3Cl)nc12 [Example 150, 2-(2-chloro-5-fluoro-phenyl)-5-phenylsulfanyl-7-propoxy-oxazolo[5,4-d]pyrimidine]",92%
10,"CCCOc1nc(Oc2ccccc2CCC)nc2oc(-c3cccc(C)c3)nc12 [Example 126, 7-propoxy-5-(2-propyl-phenoxy)-2-(3-methyl-phenyl)-oxazolo[5,4-d]pyrimidine]",121%
11,"CCCOc1nc(Oc2cccnc2)nc2oc(-c3cccc(O)c3)nc12 [Example 43, 3-[7-propoxy-5-(pyridin-3-yloxy)-oxazolo[5,4-d]pyrimidin-2-yl]-phenol]",98%
12,"Cc1cccc(-c2nc3c(OCC4CC4)nc(OC4COC4)nc3o2)c1 [Example 39, 7-cyclopropylmethoxy-5-(oxetan-3-yloxy)-2-(3-methyl-phenyl)-oxazolo[5,4-d]pyrimidine]",47%
13,"CCCOc1nc(Oc2ccc(C)cc2)nc2oc(-c3cccc(C)c3)nc12 [Example 73, 7-propoxy-2-(3-methyl-phenyl)-5-p-tolyloxy-oxazolo[5,4-d]pyrimidine]",80%
14,"CCCOc1nc(Sc2ccc(C)cn2)nc2oc(-c3cc(F)ccc3Cl)nc12 [Example 155, 2-(2-chloro-5-fluoro-phenyl)-5-(5-methyl-pyridin-2-ylsulfanyl)-7-propoxy-oxazolo[5,4-d]pyrimidine]",62%
15,"CCCOc1nc(Oc2ccc(C#N)cc2OC)nc2oc(-c3cccc(C)c3)nc12 [Example 92, 3-methoxy-4-(7-propoxy-2-(3-methyl-phenyl)-oxazolo[5,4-d]pyrimidin-5-yloxy)-benzonitrile]",51%
16,"CCCOc1nc(Oc2cc(F)ccc2C)nc2oc(-c3cc(F)ccc3Cl)nc12 [Example 79, 2-(2-chloro-5-fluoro-phenyl)-5-(5-fluoro-2-methyl-phenoxy)-7-propoxy-oxazolo[5,4-d]pyrimidine]",64%
17,"Fc1cncc(Oc2nc(OCC3CC3)c3nc(-c4ccc(Cl)c(Cl)c4)oc3n2)c1 [Example 108, 7-cyclopropylmethoxy-2-(3,4-dichloro-phenyl)-5-(5-fluoro-pyridin-3-yloxy)-oxazolo[5,4-d]pyrimidine]",98%
18,"CCOc1nc(OCC2COC(C)(C)O2)nc2oc(-c3cccc(C)c3)nc12 (centres unmarked) [Example 37, 5-(2,2-dimethyl-[1,3]dioxolan-4-ylmethoxy)-7-ethoxy-2-(3-methyl-phenyl)-oxazolo[5,4-d]pyrimidine]",86%
19,"CCCOc1nc(Oc2ccc(SC(F)(F)F)cc2)nc2oc(-c3cccc(C)c3)nc12 [Example 112, 7-propoxy-2-(3-methyl-phenyl)-5-(4-trifluoromethylsulfanyl-phenoxy)-oxazolo[5,4-d]pyrimidine]",46%
20,"Cc1cc(-c2nc3c(OC4COC4)nc(Oc4ccccc4F)nc3o2)cc(C)c1OC1COC1 [Example 49, 2-[3,5-dimethyl-4-(oxetan-3-yloxy)-phenyl]-5-(2-fluoro-phenoxy)-7-(oxetan-3-yloxy)-oxazolo[5,4-d]pyrimidine]",123%
21,"CCCOc1nc(Oc2ccccc2SC)nc2oc(-c3cccc(C)c3)nc12 [Example 139, 5-(2-methylsulfanyl-phenoxy)-7-propoxy-2-(3-methyl-phenyl)-oxazolo[5,4-d]pyrimidine]",120%
22,"CCCOc1nc(Oc2ccc(C)cc2C)nc2oc(-c3cccc(C)c3)nc12 [Example 53, 5-(2,4-dimethyl-phenoxy)-7-propoxy-2-(3-methyl-phenyl)-oxazolo[5,4-d]pyrimidine]",73%
23,"CCCOc1nc(Oc2ccc(C)cc2Cl)nc2oc(-c3cccc(C)c3)nc12 [Example 90, 5-(2-chloro-4-methyl-phenoxy)-7-propoxy-2-(3-methyl-phenyl)-oxazolo[5,4-d]pyrimidine]",67%
24,"CCCOc1nc(Oc2cc(C)nn2C)nc2oc(-c3cccc(F)c3)nc12 [Example 24, 5-(2,5-dimethyl-2H-pyrazol-3-yloxy)-2-(3-fluoro-phenyl)-7-propoxy-oxazolo[5,4-d]pyrimidine]",99%
25,"CCCOc1nc(OC2CCCCC2)nc2oc(-c3cccc(C)c3)nc12 [Example 2, 5-Cyclohexyloxy-7-propoxy-2-(3-methyl-phenyl)-oxazolo[5,4-d]pyrimidine]",90%
26,"CCCOc1nc(Oc2ccc(F)c(C)c2)nc2oc(-c3cccc(C)c3)nc12 [Example 130, 5-(4-fluoro-3-methyl-phenoxy)-7-propoxy-2-(3-methyl-phenyl)-oxazolo[5,4-d]pyrimidine]",107%
27,"CCCOc1nc(Sc2cc(F)ccc2C)nc2oc(-c3cc(F)ccc3Cl)nc12 [Example 153, 2-(2-chloro-5-fluoro-phenyl)-5-(5-fluoro-2-methyl-phenylsulfanyl)-7-propoxy-oxazolo[5,4-d]pyrimidine]",108%
28,"CCCOc1nc(Oc2cc(F)cc(C(F)(F)F)c2)nc2oc(-c3cccc(C)c3)nc12 [Example 144, 5-(3-fluoro-5-trifluoromethyl-phenoxy)-7-propoxy-2-(3-methyl-phenyl)-oxazolo[5,4-d]pyrimidine]",76%
